Experimental findings from patent US4110165A, “Process for the production of clavulanic acid” (Beecham Group Limited, priority 1974, dated 1978) are described below.

The test system of series [1] is Bacillus subtilis A. The experiment in a line: MIC, method of Example 30 with 1/100 dilution of overnight broth (Example 46).
Method: (§1) The cultures were incubated overnight and the points of bacterial growth recorded next morning by observing the turbidity of the culture.
Series [2] concerns Escherichia coli 10418. Described as above.
Method: as §1
Series [3] has as its system Staph. aureus Oxford. The description is as above. To be noted: Staphylococcus aureus.
Method: as §1
For series [4], the system named is Staph. aureus Russell. Described as above. To be noted: Staphylococcus aureus.
Method: as §1
Series [5] deals with bacteria. The experiment in a line: Tests for antibacterial activity in broth (Example 32). Type of series: cell-based.
Series [6] deals with Klebsiella aerogenes A. Description: Antibacterial synergism MIC, microtiter method (Example 42). Format: cell-based. Conditions: unit not given; method of Example 42.
The subject of series [7] is Klebsiella aerogenes 62. Described as above. To be noted: unit not given; method of Example 42. Type of series: cell-based.
The subject of series [8] is Proteus mirabilis C889. Description: M.I.C. synergism with clavulanic acid methyl ester (Example 32). Type of series: cell-based.
Series [9] relates to Klebsiella aerogenes E 70. The experiment in a line: Antibacterial synergism MIC, microtiter method (Example 42). Conditions: unit not given; method of Example 42. Format: cell-based.
Series [10] has as its system Staphylococcus aureus (Russell). The experiment in a line: M.I.C. synergism with clavulanic acid methyl ester (Example 32). Type of series: cell-based.
The nature of series [11]: Stability in human blood. Type of series: in vitro ADME.
The subject of series [12] is Klebsiella aerogenes A. The experiment in a line: Growth inhibition, penicillins with and without synergist. Type of series: cell-based.
A short description of series [13]: Blood and tissue levels in female mice. Format: in vivo. To be noted: oral administration of 100 mg/kg.
Series [14] deals with Staphylococcus aureus. Description: Antibacterial synergism MIC, microtiter method (Example 42). Type of series: cell-based. Conditions: method of Example 42.

SMILES strings stand for the structures. Values after ≈ are worked out from the molar mass of the structure shown. Structures can show the parent of a compound that is named as a salt. A value given as a limit tells only on which side of the number the result lay.

By MIC is commonly meant the smallest concentration in the dilution series that meets the test's criterion for growth inhibition. Low readings indicate greater potency, high ones weaker potency. Consider `O=C1OC(OC(=O)[C@H]2/C(=C/CO)O[C@@H]3CC(=O)N32)c2ccccc21` (some centres unmarked) [Phthalidyl ester, Clavulanic Acid Phthalide Esters], for which the MIC was 125 mg/L (≈ 377 µM) in series [1], 125 mg/L (≈ 377 µM) in [2], 31 mg/L (≈ 93.6 µM) in [3] and 15 mg/L (≈ 45.3 µM) in series [4].
For the molecule `COC(=O)[C@H]1/C(=C/CO)O[C@@H]2CC(=O)N21` [clavulanic acid methyl ester], the “antibacterial activity in broth” value in [5] was “broad spectrum activity but of a lower order than shown by clavulanic acid”.
Take `CC1(C)S[C@@H]2[C@H](NC(=O)[C@H](N)c3ccccc3)C(=O)N2[C@H]1C(=O)O` [Ampicillin, ampicillin]: the figures for the “M.I.C., Ampicillin + 5 μg/ml of Benzyl Ester of clavulanic acid” value in series [6], in series [7] and in series [9] were 1.9, 3.9 and 3.9, respectively. The “M.I.C., Ampicillin + 5 μg/ml of Methyl Ester of clavulanic acid” value amounted to 1.9 in [6], 3.9 in series [7] and 3.9 in series [9]. Moreover, the “M.I.C. in the presence of 5 μg/ml. clavulanic acid methyl ester” value in series [8] came to 31 µg/mL. In series [10], the “M.I.C. in the presence of 1.0 μg/ml. clavulanic acid methyl ester” value is < 0.4 µg/mL.
Take `O=C(O)[C@H]1/C(=C/CO)O[C@@H]2CC(=O)N21` [clavulanic acid, Z-(2R,5R)-3-(β-hydroxyethylidene)-7-oxo-4-oxa-1-azabicyclo[3,2,0]heptane-2-carboxylic acid]: the “stability in human blood” value in series [11] is on record as “high stability”.
`CC1(C)S[C@@H]2[C@H](NC(=O)Cc3ccccc3)C(=O)N2[C@H]1C(=O)O` [Benzylpenicillin, benzylpenicillin]: the “concentration inhibiting growth when 5 μg/ml. of clavulanic acid is also present” value in [12] is given as “less than 12.5 μg/ml”.
`O=C(OCc1ccccc1)[C@H]1/C(=C/CO)O[C@@H]2CC(=O)N21` [clavulanic acid benzyl ester, benzyl ester of 3-(β-hydroxyethylidine)-7-oxo-4-oxa-1-azabicyclo [3,2,0]heptane-2-carboxylic acid] registered a minimal inhibitory concentration (MIC) in [2] of 125 mg/L (≈ 432 µM).
For `O=C(O)[C@H]1/C(=C/CO)O[C@@H]2CC(=O)N21` [clavulanic acid sodium salt, 3-(β-hydroxyethylidine)-7-oxo-4-oxa-1-azabicyclo [3,2,0]heptane-2-carboxylic acid sodium salt], the “levels of clavulanic acid after oral administration” value in series [13] is on record as “useful levels”. In [2], this molecule yielded an MIC of 125 mg/L.
For `O=C(Cc1cccs1)N[C@@H]1C(=O)N2C(C(=O)[O-])=C(C[n+]3ccccc3)CS[C@H]12` [Cephaloridine, cephaloridine], the “Minimum Inhibitory Concentration in presence of 5μg/ml clavulanic acid sodium salt” value in series [14] turned out to be 3.7 µg/mL. In addition, the “M.I.C. in the presence of 1.0 μg/ml. clavulanic acid methyl ester” value in series [10] was < 0.03 µg/mL.
